Experimental data as given in ChEMBL document CHEMBL5038665, “Identification of the Benzoimidazole Compound as a Selective FLT3 Inhibitor by Cell-Based High-Throughput Screening of a Diversity Library” (J Med Chem, 2022).
pIC50: −log10 of the molar value. Active and inactive are the calls of the source. The rule behind the calls is not given here.

Tests used:
[1] = Cmax in 12 hrs fasted Sprague-Dawley rat at 15 mg/kg, po measured upto 24 hrs by LC-MS analysis; type: ADME, organism-based; set-up: route oral, dose 15 mg/kg, time <=24; conditions: in vivo
[2] = Antitumor activity against mouse Ba/F3 FLT3-ITD cells implanted in Balb/c mouse assessed as increase in survival time at 60 mg/kg, po administered every 24 hrs (Rvb=14 days); type: functional
[3] = Half life in 12 hrs fasted Sprague-Dawley rat at 15 mg/kg, po measured upto 24 hrs by LC-MS analysis; type: ADME, organism-based; conditions: in vivo
MOLM-13 [4] = test: Induction of apoptosis in human MOLM-13 cells assessed as survival population at 0.1 uM measured after 48 hrs by Annexin V-FITC/propidium iodide staining based flow cytometry(reference value: 97.35 %); type: functional
[5] = Antiproliferative activity against mouse BaF3 cells expressing wild type FLT3 assessed as reduction in cell viability measured after 72 hrs by MTS assay; type: toxicity, cell-based
[6] = Induction of apoptosis in mouse Ba/F3 FLT3-ITD cells assessed as survival population at 0.5 uM measured after 48 hrs by Annexin V-FITC/propidium iodide staining based flow cytometry(reference value: 93.99 %); type: functional
[7] = Half life in 12 hrs fasted Sprague-Dawley rat at 2 mg/kg, iv measured upto 24 hrs by LC-MS analysis; type: ADME, organism-based; conditions: in vivo
[8] = Clearance in 12 hrs fasted Sprague-Dawley rat at 2 mg/kg, iv measured upto 24 hrs by LC-MS analysis; type: ADME, organism-based; conditions: in vivo
MOLM-13 [9] = test: Induction of apoptosis in human MOLM-13 cells assessed as survival population at 1 uM measured after 48 hrs by Annexin V-FITC/propidium iodide staining based flow cytometry(reference value: 97.35 %); type: functional
MV4-11 [10] = test: Antitumor activity against human MV4-11 cells xenografted in Balb/c mouse assessed as tumor growth inhibition at 100 mg/kg, po administered for 28 days; type: functional, organism-based; conditions: time 28.0 day
[11] = Induction of apoptosis in mouse Ba/F3 FLT3-ITD cells assessed as survival population at 1 uM measured after 48 hrs by Annexin V-FITC/propidium iodide staining based flow cytometry(reference value: 93.99 %); type: functional
[12] = AUC (0-t) in 12 hrs fasted Sprague-Dawley rat at 15 mg/kg, po measured upto 24 hrs by LC-MS analysis; type: ADME, organism-based; set-up: route oral, dose 15 mg/kg, time <=24; conditions: in vivo
[13] = Oral bioavailability in 12 hrs fasted Sprague-Dawley rat at 15 mg/kg by LC-MS analysis; type: ADME, organism-based; conditions: in vivo
[14] = target: T1, Receptor-type tyrosine-protein kinase FLT3 (Mus musculus) (UniProt Q00342); test: Inhibition of FLT3 phosphorylation in mouse Ba/F3 FLT3-ITD cells assessed as reduction in phosphorylated FLT3 level measured after 12 hrs by western blot analysis; type: cell-based
T1 sequence (whole entry): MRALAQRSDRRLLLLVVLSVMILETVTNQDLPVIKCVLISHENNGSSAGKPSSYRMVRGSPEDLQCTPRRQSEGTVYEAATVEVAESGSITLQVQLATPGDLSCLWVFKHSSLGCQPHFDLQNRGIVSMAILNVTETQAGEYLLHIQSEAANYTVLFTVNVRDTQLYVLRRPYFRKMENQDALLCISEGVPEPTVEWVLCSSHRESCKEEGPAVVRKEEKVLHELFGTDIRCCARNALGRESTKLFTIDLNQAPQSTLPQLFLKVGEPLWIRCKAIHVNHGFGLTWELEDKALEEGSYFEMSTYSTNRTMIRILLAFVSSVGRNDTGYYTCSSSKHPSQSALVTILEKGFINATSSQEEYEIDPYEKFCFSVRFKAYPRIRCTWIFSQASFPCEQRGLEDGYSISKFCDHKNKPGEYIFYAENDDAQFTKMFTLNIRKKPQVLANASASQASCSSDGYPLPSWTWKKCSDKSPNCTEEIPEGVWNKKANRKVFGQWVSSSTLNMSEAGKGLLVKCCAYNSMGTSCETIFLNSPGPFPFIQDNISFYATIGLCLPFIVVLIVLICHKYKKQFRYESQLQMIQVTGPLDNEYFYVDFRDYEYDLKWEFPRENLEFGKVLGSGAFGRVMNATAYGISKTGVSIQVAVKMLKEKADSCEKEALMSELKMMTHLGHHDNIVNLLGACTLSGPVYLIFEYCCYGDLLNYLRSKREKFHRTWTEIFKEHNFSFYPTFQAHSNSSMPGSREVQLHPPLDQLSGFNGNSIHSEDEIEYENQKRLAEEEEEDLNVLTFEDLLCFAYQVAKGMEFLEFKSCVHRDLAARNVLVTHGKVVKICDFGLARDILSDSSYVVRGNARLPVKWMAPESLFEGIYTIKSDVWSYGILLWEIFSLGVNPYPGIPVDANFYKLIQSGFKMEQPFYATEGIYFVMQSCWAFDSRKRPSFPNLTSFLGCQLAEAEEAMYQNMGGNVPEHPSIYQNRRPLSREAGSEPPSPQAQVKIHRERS

[15] = Induction of apoptosis in mouse BaF3 cells assessed as survival population at 1 uM measured after 48 hrs by Annexin V-FITC/propidium iodide staining based flow cytometry(reference value: 96.35 %); type: toxicity, cell-based; conditions: read-out: Activity
[16] = target: Serine/threonine-protein kinase B-raf (Homo sapiens, UniProt P15056); test: Inhibition of BRAF (unknown origin)
Chain of Serine/threonine-protein kinase B-raf (P15056 whole entry): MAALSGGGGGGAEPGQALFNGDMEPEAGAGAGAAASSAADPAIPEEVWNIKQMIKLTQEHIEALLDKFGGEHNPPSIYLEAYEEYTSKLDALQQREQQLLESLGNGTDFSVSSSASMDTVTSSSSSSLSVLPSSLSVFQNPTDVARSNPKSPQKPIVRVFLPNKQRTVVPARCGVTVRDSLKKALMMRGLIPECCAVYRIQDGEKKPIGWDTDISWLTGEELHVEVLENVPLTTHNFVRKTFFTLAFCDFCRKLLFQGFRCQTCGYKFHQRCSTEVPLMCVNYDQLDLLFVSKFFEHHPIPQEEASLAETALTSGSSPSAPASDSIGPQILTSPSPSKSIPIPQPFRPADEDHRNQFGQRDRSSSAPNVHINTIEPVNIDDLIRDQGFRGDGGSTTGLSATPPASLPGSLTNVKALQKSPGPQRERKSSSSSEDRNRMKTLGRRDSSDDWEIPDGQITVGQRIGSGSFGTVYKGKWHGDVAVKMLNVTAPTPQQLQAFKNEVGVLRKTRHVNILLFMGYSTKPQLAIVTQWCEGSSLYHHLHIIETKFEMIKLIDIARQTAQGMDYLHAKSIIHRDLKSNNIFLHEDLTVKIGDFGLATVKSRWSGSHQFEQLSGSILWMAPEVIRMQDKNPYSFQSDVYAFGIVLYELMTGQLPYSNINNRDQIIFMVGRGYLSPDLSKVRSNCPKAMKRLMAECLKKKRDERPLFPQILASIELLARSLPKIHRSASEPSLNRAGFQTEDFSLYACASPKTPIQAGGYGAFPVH

[17] = Induction of apoptosis in mouse Ba/F3 FLT3-ITD cells assessed as survival population at 0.1 uM measured after 48 hrs by Annexin V-FITC/propidium iodide staining based flow cytometry(reference value: 93.99 %); type: functional
[18] = Clearance in 12 hrs fasted Sprague-Dawley rat at 15 mg/kg, po measured upto 24 hrs by LC-MS analysis; type: ADME, organism-based; conditions: in vivo
[19] = Toxicity in Balb/c mouse implanted with mouse Ba/F3 FLT3-ITD cells assessed as body weight loss at 30 to 100 mg/kg, po administered for 14 days; type: organism-based, BaF3; conditions: in vivo, 336 h, time 14 day
[20] = Induction of apoptosis in mouse BaF3 cells assessed as survival population at 0.1 uM measured after 48 hrs by Annexin V-FITC/propidium iodide staining based flow cytometry(reference value: 96.35 %); type: toxicity, cell-based; conditions: read-out: Activity
[21] = Tmax in 12 hrs fasted Sprague-Dawley rat at 15 mg/kg, po measured upto 24 hrs by LC-MS analysis; type: ADME, organism-based; conditions: in vivo
MV4-11 [22] = test: Induction of apoptosis in human MV4-11 cells assessed as survival population at 1 uM measured after 48 hrs by Annexin V-FITC/propidium iodide staining based flow cytometry(reference value: 98.01 %); type: functional
[23] = target: T1, Receptor-type tyrosine-protein kinase FLT3 (Mus musculus); test: Inhibition of FLT3-mediated signalling pathway in mouse Ba/F3 FLT3-ITD cells assessed as inhibition of STAT5 phosphorylation at 1 to 900 nM measured after 12 hrs by western blot analysis; type: cell-based; conditions: dose 1-900 nM
MV4-11 [24] = test: Induction of apoptosis in human MV4-11 cells assessed as survival population at 0.5 uM measured after 48 hrs by Annexin V-FITC/propidium iodide staining based flow cytometry(reference value: 98.01 %); type: functional
MV4-11 [25] = test: Antiproliferative activity against human MV4-11 cells harboring FLT3-ITD mutant assessed as reduction in cell viability measured after 72 hrs ny MTS assay; type: functional, cell-based; conditions: MV4-11, 72 h

SMILES: COc1cc(CNc2ccc3c(c2)ncn3-c2ccccc2)ccc1OCCO
- Cmax [1]: 440 ng/mL
- Time [2]: 22 days
- half-life [3]: 257 min
- Activity (MOLM-13 [4]): 83.61%
- IC50 at 72 h [5]: > 400 nM
- Activity [6]: 47.99%
- half-life [7]: 18.6 min
- clearance [8]: 43.2 mL/min/kg
- Activity (MOLM-13 [9]): 65.52%
- Activity (MV4-11 [10]): Active
- Activity [11]: 43.13%
- AUC(0-t) at 24 h [12]: 2890 ng·h/mL
- bioavailability [13]: 48.2%
- inhibition [14]: Dose-Dependent Effect
- viability at 48 h, 1 µM [15]: 97.7%
- pIC50 [16]: < 6.00
- Activity [17]: 78.45%
- CL/F [18]: 84.7 mL/min/kg
- Activity [19]: Non-Toxic
- viability at 48 h, 0.1 µM [20]: 98.3%
- Tmax [21]: 39 min
- Activity (MV4-11 [22]): 68.54%
- inhibition [23]: Active
- Activity (MV4-11 [24]): 78.6%
- pIC50 (MV4-11 [25]): 6.78
